Experimental data taken from US6469166B2, “Thiophenopyrimidines” (Neurocrine Biosciences, Inc., priority 1996, dated 2002).

Target: T1, human CRF receptors (Homo sapiens, UniProt P34998)
T1 construct: expressed in transfected cells; a membrane suspension of the stably transfected cells was used
T1 sequence (P34998 24-415): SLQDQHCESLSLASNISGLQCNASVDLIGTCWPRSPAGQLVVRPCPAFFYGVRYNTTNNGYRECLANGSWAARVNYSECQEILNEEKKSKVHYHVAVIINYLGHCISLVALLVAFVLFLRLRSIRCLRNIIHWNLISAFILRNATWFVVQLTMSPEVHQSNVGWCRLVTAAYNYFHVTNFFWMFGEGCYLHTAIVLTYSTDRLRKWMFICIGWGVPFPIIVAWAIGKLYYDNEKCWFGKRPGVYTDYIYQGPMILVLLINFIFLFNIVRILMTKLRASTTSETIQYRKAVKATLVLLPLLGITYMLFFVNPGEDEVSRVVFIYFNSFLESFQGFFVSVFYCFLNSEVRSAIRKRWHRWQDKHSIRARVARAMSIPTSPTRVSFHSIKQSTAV
Experiment: CRF receptor radioligand binding assay ([125I] tyrosine-ovine CRF displacement)
Settings: compounds found to show the best score in this test
Experimental: Compounds were evaluated for binding activity to the CRF receptor by a standard radioligand binding assay as generally described by DeSouza et al. (J. Neutrosci. 7:88-100, 1987). By utilizing various radiolabeled CRF ligands, the assay may be used to evaluate the binding activity of the compounds of the present invention with any CRF receptor subtype. Briefly, the binding assay involves the displacement of a radiolabeled CRF ligand from the CRF receptor. More specifically, the binding assay was performed in 1.5 ml Eppendorf tubes using approximately 1×10^6 cells per tube stably transfected with human CRF receptors. Each tube received about 0.1 ml of assay buffer (e.g., Dulbecco's phosphate buffered saline, 10 mM magnesium chloride, 20 μM bacitracin) with or without unlabeled sauvagine, urotensin I or CRF (final concentration, 1 μM) to determine nonspecific binding, 0.1 ml of [^125I] tyrosine-ovine CRF (final concentration ˜200 pM or approximately the KD as determined by Scatchard analysis) and 0.1 ml of a membrane suspension of cells containing the CRF receptor. […] Following two washes of the pellets, the tubes were cut just above the pellet and monitored in a gamma counter for radioactivity at approximately 80% efficiency. All radioligand binding data were analyzed using a non-linear least-square curve-fitting program. […]

CCCN(CCC)c1nc(C)nc2c(-c3c(C)cc(C)cc3C)csc12 [Compound 1, 2-methyl-6-(N,N-dipropylamino)-8-(2,4,6-trimethylphenyl)-thiopheno[3,2-d]pyrimidine]
score in the CRF receptor binding test: best score
